Test results from publication PMC9250534, “Synthesis and direct assay of large macrocycle diversities by combinatorial late-stage modification at picomole scale” (Nature Communications, 2022).
Numbered stars: 1 amine (or outer) side, 2 acyl side, 3 side chain; on linkers, the order of the positions; unused ones are H or OH. Bridge positions count the residues as written; N and C are the ends. Square brackets hold non-standard residues; d marks the D form. Peptide text beside a SMILES is read from it. * marks the point of attachment. Isoorotoyl = O=C(c1c[nH]c(=O)[nH]c1=O)*; Nicotinoyl(6-OMe) = COc1ccc(C(=O)*)cn1; 2Thenoyl(5-Cl) = O=C(c1ccc(Cl)s1)*; Pyrazinecarbonyl = O=C(c1cnccn1)*; Phenoxyacetyl = O=C(COc1ccccc1)*; Cysteamide = C(CS[*:3])N[*:1]; X3 = O=C(Cc1c[nH]c2ccccc12)*; Isovaleryl = CC(C)CC(=O)*; Orn = NCCC[C@H](N)C(=O)O; Bz = O=C(c1ccccc1)*; βAla = NCCC(=O)O; Mpa = O=C(O)CCS

Target: T1, thrombin (Homo sapiens, UniProt P00734)
T1 construct: consists of two polypeptide chains of 36 (light chain) and 259 amino acid
Experiment: Thrombin inhibition screen of crude macrocycle reactions (residual thrombin activity, fluorogenic substrate Z-Gly-Gly-Arg-AMC)
Type: biochemical
Conditions: 10 µM macrocycle concentration; for % thrombin activity, Original screen / % thrombin activity, Repeat screen: macrocycles containing acid 14, crude reaction; for % thrombin activity, Repeat screen: replicate reaction and screen; for percent residual thrombin activity: crude reactions, Library 1a-l, scaffold AA1-AA2-AA3 combined with 1-16 or '-'
How it was run: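 Each crude macrocycle (10 μM) was preincubated 10 min at room temperature with thrombin (2 nM final) in Tris-Cl pH 7.4 containing NaCl, MgCl2, CaCl2, 0.1% BSA, 0.01% Triton X-100 and 0.6% DMSO. Z-Gly-Gly-Arg-AMC (50 μM final) was then added. Inhibition came from fluorescence slopes relative to DMSO-only controls.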

| % thrombin activity, Original screen | % thrombin activity, Repeat screen | percent residual thrombin activity | Compound | also measured |
| --- | --- | --- | --- | --- |
| 102.2% | 105.2% |  | NC(=O)CCC1NC(=O)C(CCCCNC(=O)c2ccc(Cl)s2)NC(=O)CCSSCCNC(=O)C2CCCN2C1=O (centres unmarked) [X D1 Q B1] ([Mpa]K(2Thenoyl(5-Cl))QP-Cysteamide; disulfide 1-C; configuration not given here) |  |
| 91.1% | 96.6% |  | O=C1CCSSCCNC(=O)C(Cc2ccccc2)NC(=O)C(CNC(=O)c2ccc(Cl)s2)NC(=O)c2ccc(cc2)CN1 (centres unmarked) [X B3 D3 f] |  |
|  |  | 96.3876% | O=C(NCCC[C@@H]1NC(=O)[C@H](CO)NC(=O)[C@@H]2CCCN2C(=O)CCSSCCNC1=O)c1ccc(Cl)s1 [B1-S-D2/14] ([Mpa]PS[Orn](2Thenoyl(5-Cl))-Cysteamide; disulfide 1-C) |  |
|  |  | 103.228% | O=C1CCSSCCNC(=O)[C@H](CCCCNC(=O)c2ccco2)NC(=O)[C@H](Cc2ccc(O)cc2)NC(=O)C2(CC2)CN1 [B6-Y-D1/16] |  |
| 87.3% | 88.9% |  | O=C1CCSSCCNC(=O)[C@H](Cc2c[nH]c3ccccc23)NC(=O)[C@H](CCCNC(=O)c2ccc(Cl)s2)NC(=O)C2(CC2)CN1 [X B6 D2 W] |  |
|  |  | 81.7178% | O=C1CCSSCCNC(=O)[C@H](CCCCNC(=O)c2ccc(Cl)s2)NC(=O)C2(CC2)CNC(=O)[C@H](Cc2c[nH]c3ccccc23)N1 [W-B6-D1/14] |  |
| 95.1% | 100.3% |  | O=C1CCSSCCNC(=O)c2cccc(c2)CNC(=O)[C@@H](CNC(=O)c2ccc(Cl)s2)NC(=O)[C@@H](Cc2c[nH]c3ccccc23)N1 [X w D4 B5] |  |
|  |  | 113.747% | Cc1nnsc1C(=O)NCCCC[C@@H]1NC(=O)CCSSCCNC(=O)C2(CC2)CNC(=O)[C@H](Cc2cnc[nH]2)NC1=O [D1-H-B6/15] |  |
|  |  | 105.178% | O=C1CCSSCCNC(=O)[C@H](CO)NC(=O)c2ccc(cc2)CNC(=O)[C@H](CCCCNC(=O)c2c[nH]c(=O)[nH]c2=O)N1 [D1-B3-S/11] |  |
|  |  | 94.6113% | O=C1CCNC(=O)[C@H](Cc2c[nH]cn2)NC(=O)CCSSCCNC(=O)[C@H](CCCNC(=O)c2ccc(Cl)s2)N1 [H-B2-D2/14] |  |
| 96.8% | 96.5% |  | O=C1CCSSCCNC(=O)[C@H](Cc2c[nH]cn2)NC(=O)C2(CC2)CNC(=O)C2(CCN(C(=O)c3ccc(Cl)s3)CC2)N1 [X D6 B6 H] |  |
|  |  | 109.823% | CC(C)C[C@@H]1NC(=O)[C@H](CCCNC(=O)c2c[nH]c(=O)cn2)NC(=O)C2(CC2)CNC(=O)CCSSCCNC1=O [B6-D2-L/9] |  |
|  |  | 106.68% | CC(C)C[C@@H]1NC(=O)CCNC(=O)CCSSCCNC(=O)[C@H](CCCNC(=O)c2ccccc2)NC1=O [B2-L-D2/1] ([Mpa][βAla]L[Orn](Bz)-Cysteamide; disulfide 1-C) |  |
| 102.3% | 104.9% |  | CC[C@H](C)[C@@H]1NC(=O)CCSSCCNC(=O)c2ccc(cc2)CNC(=O)[C@H](CNC(=O)c2ccc(Cl)s2)NC1=O [X I D3 B3] |  |
| 78.2% | 66.2% |  | O=C1CCSSCCNC(=O)[C@H](Cc2ccc(O)cc2)NC(=O)c2cccc(c2)CNC(=O)[C@H](CCCNC(=O)c2ccc(Cl)s2)N1 [X D2 B5 Y] | % thrombin activity, Original screen (listed as X D2 B5 y): 82.3%; % thrombin activity, Repeat screen (listed as X D2 B5 y): 75.1% |
|  |  | 98.21% | CC(C)C[C@@H]1NC(=O)CCSSCCNC(=O)[C@H](CCCCNC(=O)c2c[nH]c(=O)cn2)NC(=O)C2(CC2)CNC1=O [L-B6-D1/9] |  |
| 103.4% | 104.1% |  | CC(C)[C@H]1NC(=O)CCSSCCNC(=O)c2cccc(c2)CNC(=O)[C@@H](CNC(=O)c2ccc(Cl)s2)NC1=O [X v D4 B5] |  |
|  |  | 107.378% | CC(C)[C@@H]1NC(=O)c2ccc(cc2)CNC(=O)CCSSCCNC(=O)[C@H](CCCCNC(=O)c2c[nH]c(=O)cn2)NC1=O [B3-V-D1/9] |  |
| 108.1% | 109.9% |  | CC(C)[C@H]1NC(=O)[C@H](CCCCNC(=O)c2ccc(Cl)s2)NC(=O)[C@@H]2CCCN2C(=O)CCSSCCNC1=O [X B1 D1 v] ([Mpa]PK(2Thenoyl(5-Cl))[dV]-Cysteamide; disulfide 1-C) |  |
| 84.9% | 86.6% |  | O=C(NCCCC[C@@H]1NC(=O)[C@H](Cc2c[nH]c3ccccc23)NC(=O)[C@H]2CCCN(C2)C(=O)CCSSCCNC1=O)c1ccc(Cl)s1 [X B4 W D1] | % thrombin activity, Original screen (listed as X B4 w D1): 105.6%; % thrombin activity, Repeat screen (listed as X B4 w D1): 113.0% |

Continued, compound first:

| Compound | % thrombin activity, Original screen | % thrombin activity, Repeat screen | percent residual thrombin activity | also measured |
| --- | --- | --- | --- | --- |
| COc1ccc(C(=O)NCCCC[C@@H]2NC(=O)[C@@H]3CCCN3C(=O)CCSSCCNC(=O)[C@@H](Cc3ccc(O)cc3)NC2=O)cn1 [B1-D1-y/10] ([Mpa]PK(Nicotinoyl(6-OMe))[dY]-Cysteamide; disulfide 1-C) |  |  | 109.958% |  |
| CC[C@H](C)[C@@H]1NC(=O)[C@H](CCCNC(=O)Cc2c[nH]c3ccccc23)NC(=O)c2cccc(c2)CNC(=O)CCSSCCNC1=O [B5-D2-I/12] |  |  | 103.906% |  |
| NCCCC[C@@H]1NC(=O)[C@H](Cc2ccc(O)cc2)NC(=O)C2(CC2)CNC(=O)CCSSCCNC1=O [B6-Y-D1/-] |  |  | 104.679% |  |
| Cc1nnsc1C(=O)NCCC[C@@H]1NC(=O)CCSSCCNC(=O)c2ccc(cc2)CNC(=O)[C@H](Cc2c[nH]c3ccccc23)NC1=O [D2-W-B3/15] |  |  | 116.257% |  |
| CC(C)[C@@H]1NC(=O)CCSSCCNC(=O)[C@@H]2CCCN2C(=O)[C@H](CCCCNC(=O)COc2ccccc2)NC1=O [v-D1-B1/13] ([Mpa]VK(Phenoxyacetyl)P-Cysteamide; disulfide 1-C) |  |  | 104.766% |  |
| O=C(NCCCC[C@@H]1NC(=O)[C@@H](Cc2c[nH]c3ccccc23)NC(=O)[C@H]2CCCN(C2)C(=O)CCSSCCNC1=O)c1ccccc1 [B4-W-D1/1] |  |  | 101.061% |  |
| CC(C)CC(=O)NCCCC[C@@H]1NC(=O)[C@@H]2CCCN2C(=O)[C@@H](C)NC(=O)CCSSCCNC1=O [a-B1-D1/8] ([Mpa][dA]PK(Isovaleryl)-Cysteamide; disulfide 1-C) |  |  | 110.343% |  |
| O=C1CCSSCCNC(=O)[C@H](Cc2ccc(O)cc2)NC(=O)[C@H](CCCCNC(=O)c2c[nH]c(=O)cn2)NC(=O)c2ccc(cc2)CN1 [B3-D1-Y/9] |  |  | 101.633% |  |
| CC(C)C1NC(=O)C(CCCCNC(=O)c2cnccn2)NC(=O)C2CCCN2C(=O)CCSSCCNC1=O (centres unmarked) [B1-D1-v/2] ([Mpa]PK(Pyrazinecarbonyl)V-Cysteamide; disulfide 1-C; configuration not given here) |  |  | 115.134% |  |
| CC(C)[C@@H]1NC(=O)CCSSCCNC(=O)[C@@H]2CCCN2C(=O)[C@H](CCCCNC(=O)Cc2c[nH]c3ccccc23)NC1=O [v-D1-B1/12] ([Mpa]VK(X3)P-Cysteamide; disulfide 1-C) |  |  | 99.643% |  |
| O=C1CCNC(=O)[C@@H](Cc2ccc(O)cc2)NC(=O)C2(CCN(C(=O)c3ccc(Cl)s3)CC2)NC(=O)CCSSCCN1 [X D6 y B2] | 102.0% | 104.5% |  |  |
| NC(=O)CC[C@@H]1NC(=O)[C@@H]2CCCN2C(=O)CCSSCCNC(=O)[C@H](CCCNC(=O)Cc2c[nH]c3ccccc23)NC1=O [B1-Q-D2/12] ([Mpa]PQ[Orn](X3)-Cysteamide; disulfide 1-C) |  |  | 104.653% |  |
| NCCCC[C@@H]1NC(=O)CCSSCCNC(=O)[C@@H]2CCCN2C(=O)[C@H](CCC(N)=O)NC1=O [D1-Q-B1/-] ([Mpa]KQP-Cysteamide; disulfide 1-C) |  |  | 108.142% |  |
| O=C(NCCC[C@@H]1NC(=O)[C@H](CO)NC(=O)[C@@H]2CCCN2C(=O)CCSSCCNC1=O)c1c[nH]c(=O)[nH]c1=O [B1-s-D2/11] ([Mpa]PS[Orn](Isoorotoyl)-Cysteamide; disulfide 1-C) |  |  | 111.409% |  |
| CC(C)C1NC(=O)C2CCCN(C2)C(=O)C(NC(=O)c2ccc(Cl)s2)CSSCCNC(=O)CNC1=O (centres unmarked) [C B4 V G] | 107.3% | 115.5% |  |  |
| O=C(NCCCC[C@@H]1NC(=O)[C@@H](Cc2c[nH]c3ccccc23)NC(=O)[C@H]2CCCN(C2)C(=O)CCSSCCNC1=O)c1c[nH]c(=O)cn1 [B4-w-D1/9] |  |  | 111.618% |  |
| COc1ccc(C(=O)NCCCC[C@@H]2NC(=O)[C@H](Cc3ccc(O)cc3)NC(=O)CCSSCCNC(=O)[C@H]3CCCN(C3)C2=O)cn1 [Y-D1-B4/10] |  |  | 101.956% |  |
| NC(=O)CC[C@@H]1NC(=O)CCSSCCNC(=O)C2(CCN(C(=O)c3ccc(Cl)s3)CC2)NC(=O)c2ccc(cc2)CNC1=O [X Q B3 D6] | 87.5% | 88.0% |  |  |
| CC(C)CC(=O)NCCCC[C@@H]1NC(=O)CCSSCCNC(=O)[C@@H](Cc2ccc(O)cc2)NC(=O)[C@H]2CCCN(C2)C1=O [D1-B4-y/8] |  |  | 108.143% |  |
| NCCCC[C@@H]1NC(=O)[C@H](Cc2ccc(O)cc2)NC(=O)CCSSCCNC(=O)[C@H]2CCCN(C2)C1=O [Y-D1-B4/-] |  |  | 108.211% |  |
| NC(=O)CC[C@@H]1NC(=O)[C@H](CCCCNC(=O)c2c[nH]c(=O)[nH]c2=O)NC(=O)C2(CC2)CNC(=O)CCSSCCNC1=O [B6-D1-Q/11] |  |  | 105.488% |  |
| NC(=O)CC[C@@H]1NC(=O)CCSSCCNC(=O)[C@H](CCCCNC(=O)c2c[nH]c(=O)[nH]c2=O)NC(=O)C2(CC2)CNC1=O [Q-B6-D1/11] |  |  | 108.88% |  |
